Test results as given in patent US8877791B2, “Inhibitors of pyruvate kinase and methods of treating disease” (Beth Israel Deaconess Medical Center, Inc., priority 2006, dated 2014).

Key:
[1] = system: H1299 and A549 human lung cancer cells; assay: Killing of human lung cancer cell lines by increasing concentrations of compound; type: cell-based; settings: concentration required to kill >90% of the cells, read-out: IC50 in vivo
Experimental: (§1) For in vitro studies, recombinant pyruvate kinase was incubated with the compound indicated (Table 2) and the activity of the enzyme assessed, as described in Example 4. To determine the IC50, enzyme activity was determined at various concentrations of inhibitor. The percentages shown in Table 2 reflect the inhibition of enzyme activity relative to the absence of compound when the enzyme is incubated with 50 μM of the compound indicated. For in vivo studies, human lung cancer cell lines were incubated with increasing concentrations of the compound indicated and the concentration required to kill >90% of the cells is reported.
Human lung cancer cells were exposed to increasing concentrations of candidate compounds A2 and D1. The toxicity of the compounds was measured by determining the percentage of surviving cells. Cells were mock-treated with DMSO as a control. […] depicts the toxicity of compounds A2 (FIG. 8a) and D1 (FIG. 8b) in H1299 cells compared to mock treatment with DMSO.

PKM2 = PKM2 (Homo sapiens (Human), UniProt P14618); assay: Recombinant PKM2 enzyme activity in the presence of FBP (LDH-coupled NADH consumption); type: biochemical; settings: for IC50: recombinant pyruvate kinase, enzyme activity at various concentrations of inhibitor, read-out: IC50 in vitro (PKM2); for PKM2 inhibition of enzyme activity relative to the absence of compound: screening concentration estimated at 50 μM
Experimental: (§2) Recombinant PKM1 and PKM2 were expressed in E. coli and purified using an Ni-NTA column according to standard protocols. PKM2 ([…]) was mixed with the following components: 0.6 mM ADP, 0.5 mM phosphoenolpyruvate, 200 μM NADH, 1-4 units of lactate dehydrogenase, 50 μM FBP, 1 mM DTT, 0.02% Brij 35, 5% glycerol, and the test molecule with a final DMSO concentration of 5%. A control reaction lacked the test molecule. The test molecules used in this example were selected from a library containing over 100,000 compounds.
Primary screening was performed using PKM2 in the presence of FBP. […] Activity was measured by monitoring the concentration of NADH. Pyruvate, produced by the enzymatic activity of pyruvate kinase, is converted into lactate by lactate dehydrogenase, which requires the consumption of NADH (NADH→NAD^+). Thus, the activity of PKM2 was indirectly measured by monitoring the consumption of NADH through fluorescence assays. Additionally, the activity of the PKM2 enzyme was directly monitored by measuring the production of ATP, as ATP is produced when phosphoenolpyruvate is converted to pyruvate by PKM2.
as §1

PKM1 = PKM1 (Homo sapiens (Human), UniProt P14618); assay: Recombinant PKM1 enzyme activity (same screening method); type: biochemical; settings: screening concentration estimated at 50 μM
Experimental: as §2
This same screening method was then used to retest candidate molecules for the inhibition of PKM1 to determine which candidate compounds are active against PKM2, but not PKM1.
as §1

FL5.12 cells = assay: Toxicity in FL5.12 cells with and without growth factor (IL-3); type: cell-based, mouse; settings: twenty hours of treatment, presence and absence of IL-3
Experimental: Mouse pre-lymphocyte cells (FL5.12 cells) were treated with candidate compounds A2 (FIG. 9a) and D1 (FIG. 9b) for twenty hours in the presence and absence of growth factor (IL-3).

PKM2, sequence (P14618 whole entry, species assumed): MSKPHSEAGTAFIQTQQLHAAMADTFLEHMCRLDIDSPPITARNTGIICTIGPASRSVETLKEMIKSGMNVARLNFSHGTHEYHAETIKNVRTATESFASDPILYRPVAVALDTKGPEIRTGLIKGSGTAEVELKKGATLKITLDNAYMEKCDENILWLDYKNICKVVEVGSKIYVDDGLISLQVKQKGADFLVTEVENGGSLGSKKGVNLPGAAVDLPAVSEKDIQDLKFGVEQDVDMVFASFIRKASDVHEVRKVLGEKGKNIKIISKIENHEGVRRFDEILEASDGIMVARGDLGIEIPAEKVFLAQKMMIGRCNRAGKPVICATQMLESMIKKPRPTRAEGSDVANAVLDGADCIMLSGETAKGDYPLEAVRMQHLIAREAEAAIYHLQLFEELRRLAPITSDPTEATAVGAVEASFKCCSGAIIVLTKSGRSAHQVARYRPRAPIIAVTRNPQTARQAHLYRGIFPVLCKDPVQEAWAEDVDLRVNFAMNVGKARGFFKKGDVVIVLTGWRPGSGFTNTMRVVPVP
PKM1, sequence (P14618 other isoform, or with tags, fused parts or gaps, species assumed): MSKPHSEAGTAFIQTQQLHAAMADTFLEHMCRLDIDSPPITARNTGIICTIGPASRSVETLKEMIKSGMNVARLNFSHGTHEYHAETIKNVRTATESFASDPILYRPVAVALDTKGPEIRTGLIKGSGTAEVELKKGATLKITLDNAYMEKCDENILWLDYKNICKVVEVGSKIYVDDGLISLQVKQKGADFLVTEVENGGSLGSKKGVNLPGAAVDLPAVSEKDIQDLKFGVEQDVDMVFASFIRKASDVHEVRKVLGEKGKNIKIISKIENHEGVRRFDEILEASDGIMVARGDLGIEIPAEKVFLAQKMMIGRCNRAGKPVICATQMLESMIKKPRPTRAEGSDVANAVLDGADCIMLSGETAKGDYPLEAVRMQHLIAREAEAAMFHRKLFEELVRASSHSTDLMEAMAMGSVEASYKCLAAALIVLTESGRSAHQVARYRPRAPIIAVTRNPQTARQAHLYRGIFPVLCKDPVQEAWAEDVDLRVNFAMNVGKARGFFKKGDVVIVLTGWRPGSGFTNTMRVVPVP

SMILES | IC50 (PKM2) [µM] | PKM2 inhibition of enzyme activity relative to the absence of compound (PKM2) [%] | PKM1 inhibition of enzyme activity relative to the absence of compound (PKM1) [%] | Concentration killing >90% of cells [1] [µM] | Toxicity in FL5.12 cells, effect of growth factor withdrawal (FL5.12 cells)
O=C1C2C3C=CC(C3)C2C(=O)N1c1nc[nH]n1 (stereo not shown) [Compound H1] | 90 | – | – | > 500 | –
CC(=O)CSc1ccc(-n2c(C)ccc2C)cc1 [Compound A1] | ~90 | 50 | 15 | > 100 | –
C=C(NC(C)C)c1cc2c(=O)oc3ccc(C)cc3c2s1 [Compound G1] | ~70 | – | – | > 500 | –

Now those with a lower IC50 (PKM2), led by results:

IC50 (PKM2) [µM] | PKM2 inhibition of enzyme activity relative to the absence of compound (PKM2) [%] | PKM1 inhibition of enzyme activity relative to the absence of compound (PKM1) [%] | SMILES | Concentration killing >90% of cells [1] [µM] | Toxicity in FL5.12 cells, effect of growth factor withdrawal (FL5.12 cells)
~10 | 85 | 0 | CCCCCN1/C(=C/C=C/c2n(CCCCC)c3cc(Cl)c(Cl)cc3[n+]2CCCC)N(CCCC)c2cc(Cl)c(Cl)cc21 [Compound B1] | – | –
20 | 70 | 15 | O=C(O)CN1C(=O)/C(=C/c2ccc(OC(=O)c3ccccc3I)cc2)SC1=S [Compound D1] | ~250 | Growth factor withdrawal increases the toxicity
